The record followed here is US8691875B2, “Solid forms of tacedinaline” (Broad Institute, Inc., priority 2011, dated 2014).

Converted amounts (≈) assume the structure as drawn. “Also recorded” adds a separate entry of the source. Like-named read-outs stand apart in the source and are kept apart here.

Data set [1] can be described thus: Solubility study of crystalline forms in water (slurry, UV). Type of data set: physicochemical. Conditions: for Solubility: slurry stirred 24 hours at ambient temperature (23° C.), UV. How it is done: Analysis of the relative solubilities of crystalline tacedinaline Forms A, B, and D was performed as follows.
The starting material was Form B. The only peak in the spectrum, at approximately 267 nm, was used. The UV parameters were: scan range: 190-800 nm; 480 nm/min; 1 cm cuvette.
Each sample was placed in water to give a slurry. The slurries were stirred at ambient temperature for 24 hours. The temperature in the laboratory was monitored and found to be steady at 23° C. After 24 hours, the vials containing the slurries were centrifuged for about 5 minutes. The mother liquors were decanted and filtered through 0.2 micron filters, then diluted appropriately and analyzed by UV. Solids were dried under dry air purges and analyzed by XRPD.

Data set [2] in a line: Accelerated stability studies, 40° C. and 75% relative humidity, XRPD. It is filed as physicochemical. The protocol: Accelerated stability studies were performed on samples of crystalline tacedinaline Forms A, B, C, and a mixture of Forms B and D, under conditions of 40° C. and 75% relative humidity. For the studies on Form A, samples were taken at 8 days, 15 days, one month, 10 weeks, and 8 months. For the studies on Forms B, C, and a mixture of Forms B and D, samples were taken at 2, 4, 6, 8, and 10 weeks.

Data set [3] can be described thus: Bioavailability / pharmacokinetics study, single IV and PO administration. It is filed as in vivo, Sprague-Dawley rats. Conditions: for AUC(0-inf) / AUC(0-t) / Cmax / clearance / half-life / MRT inf / Vd / bioavailability / Tmax: Sprague-Dawley, rat, plasma; for AUC(0-inf) / AUC(0-t) / Cmax / clearance / half-life / MRT inf / Vd / bioavailability: 1 mg/kg; for MRT inf: read-out: MRT(0-∞); for Vd: read-out: Vz. The protocol: A study was performed to determine the pharmacokinetics parameters and bioavailability of Tacedinaline Form A in Sprague-Dawley Rats, following a single intravenous injection (IV) and oral administration (PO). Formulation: IV formulation: The test article was dissolved in 10% DMSO/45% PEG400/45% Saline to yield a final concentration of 0.5 mg/ml for intravenous injection. PO formulation: The test article was suspended in 0.5% methylcellulose in water to yield a final concentration of 0.2 mg/ml for oral administration. Collection Intervals: Three rats in each group were used for blood collection at each time point: Groups 1 and 2: Pre-dose and post-dose (5 min, 15 min, 30 min, 1 hour, 2 hours, 4 hours, 6 hours, 8 hours, and 24 hours). Analysis Procedure: The PK blood samples were centrifuged at approximately 8000 rpm for 6 minutes at 2-8° C. and the resulting plasma separated and stored frozen at approximately −80° C. (following separation, the plasma may be initially placed on ice prior to being stored in the −80° C. freezer). All the plasma samples were labeled with detailed information such as study number, animal number, matrix, time points of collection and date of collection. Pharmacokinetics Analysis: A standard set of parameters including Area Under the Curve (AUC(0-t) and AUC(0-∞)), elimination half-life (T1/2), maximum plasma concentration (Cmax), time to reach maximum plasma concentration (Tmax), clearance (CL), and volume of distribution (VZ) was calculated using noncompartmental analysis modules in FDA certified pharmacokinetic program WinNonlin Professional v6.1 (Pharsight, USA). Further, the bioavailability was estimated using the following formula: […]

The nature of data set [4]: Competitive slurry experiment / relative thermodynamic stability. It is filed as physicochemical. Conditions: for relative thermodynamic stability, rank order: from Examples 10A, 11 and 12; for thermodynamic stability relative to other forms (in words): slurry experiments (THF overnight; acetone 7 days), Examples 10A, 11, 12. The protocol: To a mixture of 161.3 mg of crystalline tacedinaline Forms B and D, was added 2 mL of acetone. The resulting slurry was stirred at ambient temperature for 7 days and filtered to give white solid.
A slurry containing 25.8 mg tacedinaline Form A, 25.8 mg of a mixture of tacedinaline Forms B and D, a few milligrams of tacedinaline Form B, and 0.5 mL of tetrahydrofuran (THF) was stirred overnight and filtered to give 38.6 mg of a white solid. The white solid was analyzed by XRPD and determined to be tacedinaline Form A.

Data set [5] can be described thus: Thermal stability relative to Form C. It is filed as physicochemical. How it is done: As used herein, the term “DSC” refers to differential scanning calorimetry. Unless otherwise noted, DSC data disclosed herein were obtained using a TA Instruments 2920 instrument. Samples were prepared in crimped aluminum pans and kept under a flow of nitrogen during analysis. The heating rate was 10° C./minute.
As used herein, the term “TGA” refers to thermogravimetric analysis. Unless otherwise noted, TGA data disclosed herein were obtained using TA Instruments 2050 instrument. Samples were kept under a flow of nitrogen during analysis. The heating rate was 10° C./minute.

For `CC(=O)Nc1ccc(C(=O)Nc2ccccc2N)cc1` [B + D, 4-acetamido-N-(2-aminophenyl)benzamide], in data set [1], the Solubility (as a rule, the dissolved amount per volume that the medium holds) is 20.8 µg/mL. In addition, in data set [2] (listed as mixture of Form B and Form D), the “stability of the solid form (in words)” value is listed as “more stable than Form C”. For the same molecule, the “XRPD Result” value in data set [2] (pull time 2 weeks), in data set [2] (pull time 4 weeks), in data set [2] (pull time 6 weeks) and in data set [2] (pull time 8 weeks) was “B + D” each time.
In data set [1], `CC(=O)Nc1ccc(C(=O)Nc2ccccc2N)cc1` [Form A, 4-(acetylamino)-N-(2-aminophenyl)benzamide] had a Solubility of 17.6 µg/mL (≈ 65.4 µM). Moreover, the “stability of the solid form (in words)” value in data set [2] is recorded as “stable, as no conversion was seen”. For the same molecule, the CL_F in data set [3] (PO 1 mg/kg, Animal No. 1) is 4.5 mL/min/kg; in data set [3] (PO 1 mg/kg, Animal No. 2), 4.17 mL/min/kg; in data set [3] (PO 1 mg/kg, Mean) it was 4.33 mL/min/kg. Besides, the Vz_F is given as 1.47 L/kg in data set [3] (PO 1 mg/kg, Animal No. 1); 1.04 L/kg in data set [3] (PO 1 mg/kg, Animal No. 2); 1.25 L/kg in data set [3] (PO 1 mg/kg, Mean). Moreover, the total exposure AUC(0-inf) (as a rule, total exposure, with the tail of the curve extrapolated) in data set [3] (iv, IV 1 mg/kg, Animal No. 1) is 3100 ng·h/mL; in data set [3] (iv, IV 1 mg/kg, Animal No. 2), 3010 ng·h/mL; in data set [3] (iv, IV 1 mg/kg, Mean), 3060 ng·h/mL; in data set [3] (po, PO 1 mg/kg, Animal No. 1) it was 3730 ng·h/mL; in data set [3] (po, PO 1 mg/kg, Animal No. 2), 4030 ng·h/mL; in data set [3] (po, PO 1 mg/kg, Mean), 3880 ng·h/mL. Also, the exposure AUC(0-t) (commonly the area under the concentration-time curve up to a stated or last time point) in data set [3] (iv, IV 1 mg/kg, Animal No. 1) came out at 3090 ng·h/mL; in data set [3] (iv, IV 1 mg/kg, Animal No. 2), 3010 ng·h/mL; in data set [3] (iv, IV 1 mg/kg, Mean), 3050 ng·h/mL; in data set [3] (po, PO 1 mg/kg, Animal No. 1) it was 3700 ng·h/mL; in data set [3] (po, PO 1 mg/kg, Animal No. 2) it was 4020 ng·h/mL; in data set [3] (po, PO 1 mg/kg, Mean) it was 3860 ng·h/mL. Also, the Cmax (usually the maximum level reached in the sampled fluid or tissue) in data set [3] (iv, IV 1 mg/kg, Animal No. 1) was 799 ng/mL; in data set [3] (iv, IV 1 mg/kg, Animal No. 2) it was 715 ng/mL; in data set [3] (iv, IV 1 mg/kg, Mean) it was 757 ng/mL; in data set [3] (po, PO 1 mg/kg, Animal No. 1), 687 ng/mL; in data set [3] (po, PO 1 mg/kg, Animal No. 2) it was 781 ng/mL; in data set [3] (po, PO 1 mg/kg, Mean), 734 ng/mL. Further, the clearance was 5.33 mL/min/kg in data set [3] (iv, IV 1 mg/kg, Animal No. 1); 5.5 mL/min/kg in data set [3] (iv, IV 1 mg/kg, Animal No. 2); 5.5 mL/min/kg in data set [3] (iv, IV 1 mg/kg, Mean). Besides, the half-life (in general, how long it takes for the measured level to halve) is 2.81 h in data set [3] (iv, IV 1 mg/kg, Animal No. 1); 2.82 h in data set [3] (iv, IV 1 mg/kg, Animal No. 2); 2.81 h in data set [3] (iv, IV 1 mg/kg, Mean); 3.81 h in data set [3] (po, PO 1 mg/kg, Animal No. 1); 2.9 h in data set [3] (po, PO 1 mg/kg, Animal No. 2); 3.35 h in data set [3] (po, PO 1 mg/kg, Mean). The MRT inf in data set [3] (iv, IV 1 mg/kg, Animal No. 1) stood at 3.46 h; in data set [3] (iv, IV 1 mg/kg, Animal No. 2), 3.57 h; in data set [3] (iv, IV 1 mg/kg, Mean), 3.52 h; in data set [3] (po, PO 1 mg/kg, Animal No. 1), 4.6 h; in data set [3] (po, PO 1 mg/kg, Animal No. 2), 4.06 h; in data set [3] (po, PO 1 mg/kg, Mean), 4.33 h. In addition, the Vd came out at 1.31 L/kg in data set [3] (iv, IV 1 mg/kg, Animal No. 1); 1.35 L/kg in data set [3] (iv, IV 1 mg/kg, Animal No. 2); 1.33 L/kg in data set [3] (iv, IV 1 mg/kg, Mean). Also, the bioavailability in data set [3] (oral, rats, read-out: bioavailability) worked out at 100%; in data set [3] (po, PO 1 mg/kg, Animal No. 1, read-out: F (Bioavailability)), 122%; in data set [3] (po, PO 1 mg/kg, Animal No. 2, read-out: F (Bioavailability)), 132%; in data set [3] (po, PO 1 mg/kg, Mean, read-out: F (Bioavailability)), 127%. The Tmax (commonly the time from dosing to the highest level) in data set [3] (IV 1 mg/kg, Animal No. 1) amounted to 0.5 h; in data set [3] (PO 1 mg/kg, Animal No. 1), 2 h. The “relative thermodynamic stability, rank order” value in data set [4] is given as “A>D>B”. In data set [4], the “thermodynamic stability relative to other forms (in words)” value was “more thermodynamically stable, relative to tacedinaline Forms B, and D; also recorded: more thermodynamically stable under certain conditions relative to Forms B and D”. For the same molecule, the “thermal stability relative to Form C (in words)” value in data set [5] is reported as “improved thermal stability relative to tacedinaline Form C”.
In the case of `CC(=O)Nc1ccc(C(=O)Nc2ccccc2N)cc1` [Form B, 4-(acetylamino)-N-(2-aminophenyl)benzamide], in data set [1], the “solubility in water compared with other forms (in words)” value is “superior to that of Forms A and D”; the Solubility came out at 42.6 µg/mL (≈ 158 µM). The “stability of the solid form (in words)” value in data set [2] is reported as “more stable than Form C”. The “relative thermodynamic stability, rank order” value in data set [4] is “A>D>B”. In addition, in data set [5], the “thermal stability relative to Form C (in words)” value is recorded as “improved thermal stability relative to tacedinaline Form C”.
On to `CC(=O)Nc1ccc(C(=O)Nc2ccccc2N)cc1` [Form C, 4-(acetylamino)-N-(2-aminophenyl)benzamide, reference compound], for which the “stability of the solid form (in words)” value in data set [2] is reported as “converted to either Form D, or a mixture of Form D with some amount of Form A present”. For the same molecule, the “XRPD Result” value in data set [2] (pull time 2 weeks), in data set [2] (pull time 6 weeks) and in data set [2] (pull time 8 weeks) was “D + A” throughout.
For `CC(=O)Nc1ccc(C(=O)Nc2ccccc2N)cc1` [Form D, 4-(acetylamino)-N-(2-aminophenyl)benzamide], in data set [4], the “relative thermodynamic stability, rank order” value was “A>D>B” and the “thermodynamic stability relative to other forms (in words)” value is on record as “more thermodynamically stable under certain conditions relative to Form B”. Further, the “thermal stability relative to Form C (in words)” value in data set [5] is given as “improved thermal stability relative to tacedinaline Form C”.
